According to patent publication US12685733B2, “Indole molecules and use thereof in the inhibition of DNA polymerases” (BioVentures, LLC, priority 2019, dated 2026):

Columns and labels:
[1] = target: T1, hpol β (Homo sapiens, UniProt P06746); experiment: Fluorescence-based polymerase assay, other pol families; format: biochemical; conditions: 10 μM; 1 nM hpol β (X-family)
T1 construct: gift of Dr. Samuel Wilson (NIEHS)

[2] = test system: T98G spheroids (GSC); experiment: GSC clonogenic survival assay; format: cell-based; conditions: 50 nM, 3 hours
Procedure: GSC clonogenic survival assay. Spheroids proficient and deficient in hpol κ were cultured for 12 days as described above before treating with PNR 7-48 (50 nM) for 3 hours. Spheroids were harvested, titrated into single cell populations and counted via trypan blue exclusion assay. Around 500 viable cells were plated per well in a 6 well dish and allowed to recover for 8-10 days in MEM with 10% FBS. Cells were fixed with 4% formaldehyde (v/v) for 30 min followed by staining with crystal violet (Sigma Aldrich, St. Louis, MO) for 30 min. Total number of colonies were counted using the EVOS microscope, with viable colonies consisting of 25 cells or more. This experiment was done in technical triplicate. As with spheroid growth, clonogenic survival was impeded for T98G cells lacking hpol κ activity (FIG. 11).

[3] = test system: MCF7 cells; experiment: BrdU ssDNA / propidium iodide flow cytometry; format: cell-based; conditions: PNR-7-48 0.5 μM + Mirin 100 μM, 48 hours
Procedure: MCF7 cells were plated in 60 mm dishes at a confluency of 300,000 cells per dish and incubated overnight. Cells were treated the next day with BrdU (10 μM). The compounds were diluted in DMSO and added to the media at a final concentration of PNR-7-48 (0.5 μM) and Mirin (100 μM). The final concentration of DMSO was 0.1% (v/v). After 48 hours of treatment, media was removed and cells were washed in 1×PBS and trypsinized. Cells were then resuspended in media and centrifuged at 1500 rpm (calculate relative centrifugal force, RCF) for 5 minutes. The supernatant was removed, and again cells were washed and centrifuged. The supernatant was discarded and cells were resuspended in ice-cold 70% (v/v) ethanol prepared in 1×PBS while being vortexed. After overnight fixing at 4° C., cells were vortexed and centrifuged at 3000 rpm (RCF) for 10 minutes. Ethanol was removed leaving residual amounts for cell resuspension by vortexing. Fixed cells were stained with fluorescent anti-BrdU antibodies (FITC mouse anti-BrdU kit; 556028; BD) without prior acid treatment to detect only ssDNA. To confirm that the experimental cells had incorporated BrdU, aliquots of all nuclei were also denatured using HCL and then neutralized with sodium borate before staining with the anti-BrdU antibody. […] Samples were analyzed using the BD FACSCalibur Flow Cytometer in the UAMS Flow Cytometry Core. […]

[4] = test system: hpol κ-deficient HAP-1 cells; experiment: supF mutagenesis assay; conditions: 1 μM IAG-10, 24 h
Procedure: HAP-1 hpol κ-proficient and hpol κ-deficient cells were cultured in 10 cm dishes to ~80% confluency in Iscove's modified Dulbecco's medium (Invitrogen) containing 10% (v/v) FBS supplemented with Ix antibiotic antimycotic solution (Sigma). They were transfected with unmodified (control) and methylmethanesulfonate (MMS)-modified pSP189 plasmid harboring the supF gene either in the absence or presence of 1 μM IAG-10. For plasmid modification with MMS, the pSP189 plasmid was first incubated with 100 mM MMS in 10 mM HEPES buffer (pH 7.5) containing 50 mM KCl, 5 mM MgCl2, and 1 mM dithiothreitol at RT for 1 h. The MMS-modified plasmid was then purified by ethanol precipitation and used in subsequent transfections, similar to the unmodified plasmid. […] The recovered plasmids (75-100 ng) were then transformed into E. coli MBM7070 strain by electroporation, and the transformed bacterial cells were plated on LB-agar plates containing 100 μg/mL ampicillin, 1 mM isopropyl-I-thio-fi-Dgalactopyranoside (IPTG) and 100 μg/mL X-gaL The resulting blue (nonmutated) and white (mutated) colonies were counted. The mutation frequency was calculated as the ratio of mutant (white) colonies to total (blue+white) colonies. At least 10 000 colonies were counted for each condition, and the results reported represent the mean (±SD) of experiments performed in biological triplicate.

[5] = target: T2, hpol κ (Homo sapiens, UniProt Q9UBT6); experiment: HPG labeling (chemical footprinting) with LC-MS; parameters: hpol κ (residues 19-526); made in house; conditions: IAG-10 20 and 100 μM added
T2 sequence (Q9UBT6 19-526): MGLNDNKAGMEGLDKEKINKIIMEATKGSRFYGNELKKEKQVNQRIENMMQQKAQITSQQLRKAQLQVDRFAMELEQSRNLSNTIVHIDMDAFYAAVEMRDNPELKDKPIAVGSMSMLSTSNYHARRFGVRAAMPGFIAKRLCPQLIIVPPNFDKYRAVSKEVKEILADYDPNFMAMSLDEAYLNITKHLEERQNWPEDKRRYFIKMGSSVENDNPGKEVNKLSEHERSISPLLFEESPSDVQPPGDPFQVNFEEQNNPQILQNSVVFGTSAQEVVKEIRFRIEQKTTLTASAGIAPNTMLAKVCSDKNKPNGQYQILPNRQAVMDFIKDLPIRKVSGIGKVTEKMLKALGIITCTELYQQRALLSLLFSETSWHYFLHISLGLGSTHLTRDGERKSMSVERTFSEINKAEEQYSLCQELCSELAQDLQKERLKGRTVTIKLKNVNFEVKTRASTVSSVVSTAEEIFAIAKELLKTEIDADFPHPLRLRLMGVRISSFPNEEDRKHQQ
Procedure: HPG is a commonly used amino-acid modifier, which when reacted with a protein, modifies the L-arginine side chains selectively. HPG labeling experiments were performed with hpol κ (10 μM) in the presence or absence of UAMS-48. Briefly, hpol κ was pre-incubated with either 20 μM (1:2 molar ratio) or 100 μM (1:10 molar ratio) IAG-10 for 10 mins at 37° C. in 50 mM HEPES buffer (pH 7.8) containing 200 mM NaCl, 10 mM MgCl2, and 10% v/v DMSO. The HPG labeling was carried out at 37° C. in the dark for 1 hr by adding 500 μM of HPG to the pre-incubated reaction mix, followed by addition of 200 mM of free L-arginine to quench the reaction after 1 hr. […]
The peak intensity was then quantified manually using the corresponding m/z value and the relative abundance for each modified peptide was calculated as a function of area under the peak in Xcalibur™ software (ThermoFisher Scientific). The percentage of modified arginine measured by mass spectrometry was calculated as a fraction of total arginine (i.e. unmodified+HPG modified) quantified for a specific residue. […]
Next, Chemical footprinting was used in an effort to ascertain the binding site of IAG-10 on hpol κ. […] After quenching the reaction and gel electrophoresis, the modified protein was trypsin-digested, and the resulting peptides were analyzed by LC-MS. […]

`Cl.[H]/N=C(\N)NN=Cc1cn(C(=O)c2cccc3ccccc23)c2ccc(Cl)cc12` [IAG-10, (E)-2-((1-(1-naphthoyl)-5-chloro-1H-indol-3-y1)methylene)hydrazine-1-carboximidamide hydrochloride] was tested, and the “polymerase activity relative to DMSO control” value [1] was “only hpol κ activity was inhibited”, the GSC differentiation [2] was “inhibit GSC differentiation” and the “cell death (sub-G1 cells)” value [3] was “increases”. The “ssDNA gap formation (BrdU+ cells)” value [3] was “increases”, the “mutation frequency for control or MMS-damaged DNA” value [4] was “did not alter the mutation frequency” and the “decrease in the fraction of HPG-modified peptides (Arg145, Arg149, Arg505)” value [5] was greater than 50%. For the same molecule, the “fraction of HPG-modified peptides containing Arg48” value [5] was “large increase”.
